Patent US6875760B2 (Novo Nordisk A/S, priority 1999, dated 2005)
pIC50: −log10 of the molar value.

Target: T1, cloned human glucagon receptor (Homo sapiens, UniProt P47871)
T1 construct: expressed in transfected cells; plasma membrane preparation
Assay: Glucagon Binding Assay (II)
Settings: plasma membranes of BHK cells expressing the receptor; read-out: Glu Bd Assay (II) IC50
Protocol: Binding of compounds to the glucagon receptor was determined in a competition binding assay using the cloned human glucagon receptor.
The receptor inserted in the pLJ6′ expression vector using EcoRI/SSt1 restriction sites (Lok et al.) was expressed in a baby hamster kidney cell line (A3 BHK 570-25).
The homogenate was resuspended and centrifuged again. The final precipitate containing the plasma membranes was suspended in buffer and stored at −80° C. until use.
Binding assays were carried out in duplicate in polypropylene tubes or microtiter plates. The buffer used in this assay was 50 mM HEPES pH 7.4 containing 5 mM EGTA, 5 mM MgCl2 and 0.005% Tween 20. Sample (glucagon (Bachem CA) or test compounds) was added to each tube or well. Tracer (˜25.000 cpm) was diluted in buffer and was added to each tube or well. 0.5 mg freshly thawed plasma membrane protein diluted in buffer was then added in aliquots to each tube or well. Tubes or plates were incubated at 37° C. for 1 hour. Non-specific binding was determined with 10^−7 M of glucagon. Bound tracer and unbound tracer were then separated by vacuum filtration. The tubes or wells were washed twice with 0.01% Triton X-100 buffer. Scintillation fluid was added to the plates and radioactivity was quantified using a scintillation counter.

T1 sequence (P47871 26-477): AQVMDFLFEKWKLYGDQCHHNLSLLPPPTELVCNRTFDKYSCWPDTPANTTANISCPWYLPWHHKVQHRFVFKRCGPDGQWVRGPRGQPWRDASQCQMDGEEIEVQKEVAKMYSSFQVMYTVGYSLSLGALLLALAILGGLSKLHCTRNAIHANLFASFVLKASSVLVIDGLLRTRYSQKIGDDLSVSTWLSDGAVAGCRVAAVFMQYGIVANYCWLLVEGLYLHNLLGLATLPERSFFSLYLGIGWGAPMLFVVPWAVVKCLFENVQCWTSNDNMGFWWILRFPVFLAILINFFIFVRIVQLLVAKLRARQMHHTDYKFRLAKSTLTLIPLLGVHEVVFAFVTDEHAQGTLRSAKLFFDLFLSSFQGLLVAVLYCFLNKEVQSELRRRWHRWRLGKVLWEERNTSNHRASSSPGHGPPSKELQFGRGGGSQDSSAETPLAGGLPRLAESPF

Compound	pIC50
O=C(Nc1nn[nH]n1)c1ccc(CN(Cc2ccc(OC(F)(F)F)cc2)c2ccc(C3CCCCC3)cc2)cc1 [Example 388, 4-{[(4-Cyclohexylphenyl)-(4-trifluoromethoxybenzyl)amino]methyl}-N-(2H-tetrazol-5-yl)benzamide]	6.81
O=C(O)CCNC(=O)c1ccc(CN(Cc2cc(Cl)cc(Cl)c2)c2ccc(C3CCCCC3)cc2)cc1 [Example 582, 3-(4-{[(4-Cyclohexylphenyl)-(3,5-dichlorobenzyl)amino}methyl]benzoylamino)propionic acid]	6.97
CC(C)(C)C1CCC(N(Cc2ccc(C(=O)NCCC(=O)O)cc2)C(=O)Nc2ccc(Cl)cc2)CC1 (stereo not shown) [Example 230, 3-{4-[1-(4-tert-Butylcyclohexyl)-3-(4-chlorophenyl)ureidomethyl]benzoylamino}propionic acid]	6.64
C[C@@H](NC(=O)N(Cc1ccc(C(=O)Nc2nn[nH]n2)cc1)c1ccc(C2CCCCC2)cc1)c1ccccc1 [Example 598, 4-[1-(4-Cyclohexylphenyl)-3-((1R)-1-phenylethyl)ureidomethyl]-N-(2H-tetrazol-5-yl)benzamide]	6.68
O=C(Nc1nn[nH]n1)c1ccc(CN(Cc2ccc(OC(F)(F)F)cc2)[C@H]2CC[C@@H](C3CCCCC3)CC2)cc1 [Example 572, 4-({(4-cis-Cyclohexylcyclohexyl)-[4-(trifluoromethoxy)benzyl]amino}methyl)-N-(2H-tetrazol-5-yl)benzamide]	6.78
CC1(C)[C@@H]2CC[C@@H](CN(Cc3ccc(C(=O)NCCC(=O)O)cc3)C(=O)Nc3ccc(OC(F)(F)F)cc3)[C@@H]1C2 [Example 234, 3-{4-[1-([(1S,2R,5R)-6,6-Dimethylbicyclo[3.1.1]hept-2-yl]methyl)-3-(4-trifluoromethoxyphenyl)ureidomethyl]benzoylamino}propionic acid]	6.95
CC(C)(C)c1ccc(CN(Cc2ccc(C(=O)NCCC(=O)O)cc2)C(=O)Nc2cc(Cl)cc(Cl)c2)cc1 [Example 108, 3-{4-[1-(4-tert-Butylbenzyl)-3-(3,5-dichlorophenyl)ureidomethyl]benzoylamino)propionic acid]	6.17
CCCCOc1ccc(C(=O)NN(Cc2ccc(C(=O)NCCC(=O)O)cc2)C2Cc3ccccc3C2)cc1 [Example 587, 3-{4-[N′-(4-Butoxybenzoyl)-N-indan-2-ylhydrazinomethyl]benzoylamino}propionic acid]	6.16
CC(C)S(=O)(=O)Cc1cccc(NC(=O)N(Cc2ccc(C(=O)Nc3nn[nH]n3)cc2)c2ccc(C3CCCCC3)cc2)c1 [Example 389, 4-{1-(4-Cyclohexylphenyl)-3-[3-(propane-2-sulfonylmethyl)phenyl]ureidomethyl}-N-(2H-tetrazol-5-yl)benzamide]	6.47
CC(C)(C)[C@H]1CC[C@H](N(Cc2ccc(C(=O)NCCC(=O)O)cc2)C(=O)Nc2ccc(SC(F)(F)F)cc2)CC1 [Example 235]	7.85
CC(C)(C)C1CCC(N(Cc2ccc(OC(F)(F)F)cc2)Cc2ccc(C(=O)NCCC(=O)O)cc2)CC1 (stereo not shown) [Example 385, 3-(4-{[(4-tert-Butylcyclohexyl)-(4-trifluoromethoxybenzyl)amino]methyl}benzoylamino)propionic acid]	7.48
N#Cc1ccc(NC(=O)N(Cc2ccc(C(=O)Nc3nn[nH]n3)cc2)c2ccc(C3CCCCC3)cc2)cc1C(F)(F)F [Example 597, 4-[1-(4-Cyclohexylphenyl)-3-(4-cyano-3-trifluoromethylphenyl)ureidomethyl]-N-(2H-tetrazol-5-yl)benzamide]	8.15
O=C(Nc1nn[nH]n1)c1ccc(CN(C(=O)Nc2ccc3c(c2)OC(F)(F)C(F)(F)O3)c2ccc(C3CCCCC3)cc2)cc1 [Example 396, 4-[1-(4-Cyclohexylphenyl)-3-(2,2,3,3-tetrafluoro-2,3-dihydrobenzo[1,4]dioxin-6-yl)ureidomethyl]-N-(2H-tetrazol-5-yl)benzamide]	7.89
C[C@@H](C1CCCCC1)N(Cc1ccc(C(=O)NCCC(=O)O)cc1)C(=O)Nc1ccc2ccccc2c1 [Example 110, 3-{4-[1-((1S)-1-Cyclohexylethyl)-3-naphthalene-2-ylureidomethyl]benzoylamino)propionic acid]	6.16
CCCCOC(=O)c1ccc(NC(=O)N(Cc2ccc(C(=O)NCCC(=O)O)cc2)CC2CCCCC2)cc1	6.58
O=C(O)CCNC(=O)c1ccc(CN(Cc2ccc(OC(F)(F)F)cc2)c2ccc(C3CCCCC3)cc2)cc1 [Example 386, 3-(4-{[(4-Cyclohexylphenyl)-(4-trifluoromethoxybenzyl)amino]methyl}benzoylamino)propionic acid]	6.99

Same assay, conditions: screened at 1 μM; library compounds; read-out: displacement of the glucagon tracer when screened at 1 μM concentration in the glucagon binding assay II

Compound	inhibition at 1 µM [%]
O=C(O)CCCOc1ccc(CN(C(=O)Nc2ccc(Cl)c(C(F)(F)F)c2)c2ccc(C3CCCCC3)cc2)cc1 [Example 217, 4-{4-[3-(4-Chloro-3-trifluoromethylphenyl)-1-(4-cyclohexylphenyl)ureidomethyl]phenoxy}butyric acid]	> 50
CC(C)(C)C1CCC(N(Cc2ccc(C(=O)NCCC(=O)O)cc2)C(=O)Nc2ccc(Br)cc2)CC1 (stereo not shown) [Example 133, 3-{4-[3-(4-Bromophenyl)-1-(4-tert-butylcyclohexyl)ureidomethyl]benzoylamino)propionic acid]	> 50
COc1ccc(CN(Cc2cccc(Oc3cccc(C(F)(F)F)c3)c2)Cc2ccc(C(=O)NCCC(=O)O)s2)cc1OC [Example 152, 3-(5-{[(3,4-Dimethoxybenzyl)-(3-[3-trifluoromethylphenoxy]benzyl)amino]methyl}thiophene-2-carbonylamino)propionic acid]	> 50
O=C(O)CCNC(=O)c1ccc(CN(Cc2ccccc2OC(F)(F)F)C(=O)Nc2ccc3ccccc3c2)cc1 [Example 115, 3-{4-[1-(2-Trifluoromethoxybenzyl)-3-naphthalene-2-ylureidomethyl]benzoylamino)propionic acid]	> 50
O=C(O)CCNC(=O)c1ccc(CN(Cc2ccccc2Cl)CC(c2ccccc2)c2ccccc2)cc1 [Example 143, 3-(4-{[(2,2-Diphenylethyl)-(2-chlorobenzyl)amino]methyl}benzoylamino)propionic acid]	> 50
O=C(O)CCNC(=O)c1ccc(CN(C(=O)Nc2ccc(Cl)c(C(F)(F)F)c2)c2ccc(C3CCCCC3)cc2)cc1 [Example 185, 3-{4-[3-(4-Chloro-3-trifluoromethylphenyl)-1-(4-cyclohexylphenyl)ureidomethyl]benzoylamino}propionic acid]	> 50
CC(C)(C)C1CCC(N(Cc2ccc(C(=O)Nc3ccc(O)c([N+](=O)[O-])c3)cc2)C(=O)Nc2cc(Cl)cc(Cl)c2)CC1 (stereo not shown) [Example 169, 4-[1-(4-tert-Butylcyclohexyl)-3-(3,5-dichlorophenyl)ureidomethyl]-N-(4-hydroxy-3-nitrophenyl)benzamide]	> 50
O=C(O)CCNC(=O)c1ccc(CN(C(=O)NCOc2ccc3ccccc3c2)c2ccc(C3CCCCC3)cc2)cc1 [Example 203, 3-{4-[1-(4-Cyclohexylphenyl)-3-(naphthalen-2-yloxymethyl)ureidomethyl]benzoylamino}propionic acid]	> 50
CCOc1ccc(NC(=O)N(Cc2ccc(C(=O)NCCC(=O)O)cc2)C2CCC(C(C)(C)C)CC2)cc1 (stereo not shown) [Example 200, 3-{4-[1-(4-tert-Butylcyclohexyl)-3-(4-ethoxyphenyl)ureidomethyl]benzoylamino}propionic acid]	> 50
O=C(O)CCNC(=O)c1ccc(CN(Cc2ccccc2Cl)CC(c2ccccc2)c2ccccc2)s1 [Example 144, 3-(5-{[(2,2-Diphenylethyl)-(2-chlorobenzyl)amino]methyl}thiophene-2-carbonylamino)propionic acid]	> 50
CC(C)(C)C1CCC(N(Cc2ccc(C(=O)NCCC(=O)O)cc2)C(=O)Nc2ccc(C(=O)O)cc2)CC1 (stereo not shown) [Example 196, 4-{3-(4-tert-Butylcyclohexyl)-3-[4-(2-carboxyethylcarbamoyl)benzyl]ureido}benzoic acid]	> 50
CC(C)(C)c1ccc(CN(Cc2ccc(C(=O)NCCC(=O)O)s2)C(=O)Nc2ccc3ccccc3c2)cc1 [Example 127, 3-{5-[1-(4-tert-Butylbenzyl)-3-naphthalene-2-ylureidomethyl]thiophene-2-carbonylamino)propionic acid]	> 50
CC(C)(C)C1CCC(N(Cc2ccc(C(=O)Nc3nnn[nH]3)cc2)C(=O)Nc2ccc(Cl)cc2)CC1 (stereo not shown) [Example 159, 4-[1-(4-tert-Butylcyclohexyl)-3-(4-chlorophenyl)ureidomethyl]-N-(1H-tetrazol-5-yl)benzamide]	> 50
CC(C)(C)C1CCC(N(Cc2ccc(C(=O)NCCC(=O)O)cc2)C(=O)Nc2cccc(SC(F)(F)F)c2)CC1 (stereo not shown) [Example 199, 3-{4-[1-(4-tert-Butylcyclohexyl)-3-(3-trifluoromethylsulfanylphenyl)ureidomethyl]benzoylamino}propionic acid]	> 50
O=C(O)CCNC(=O)c1ccc(CN(Cc2ccccc2OC(F)(F)F)C(=O)Nc2ccc(SC(F)(F)F)cc2)cc1 [Example 117, 3-{4-[1-(2-Trifluoromethoxybenzyl)-3-(4-trifluoromethylsulfanylphenyl)ureidomethyl]benzoylamino)propionic acid]	> 50
